# Reference: patent publication US20220288207A1, “PHOTO INDUCED CONTROL OF PROTEIN DESTRUCTION” (Beth Israel Deaconess Medical Center, Inc., priority 2019, published 2022)
# Entries after “also recorded” stand apart in the source; their conditions may differ.
# Experiments:
# [1] = UV-VIS absorption spectrum; assay type: physicochemical; details: in DMSO
# Description: (§1) UV-Vis spectrometry was performed on a NanoDrop-2000 UV-Visible Spectrophotometer. Pomalidomide, opto-pomalidomide, dBET1, opto-dBET1, dALK and opto-dALK were dissolved in DMSO and diluted to indicated concentration, followed by UVA irradiation for indicated duration of time. Then the samples were subjected to UV-Vis spectrometry analysis. Pomalidomide and opto-pomalidomide mixture solutions were made with the indicated ratio. Absorption values at 364 nm were measured to draw standard curve. dBET1 and opto-dBET1 mixture solution were made with the indicated ratios. Absorption values at 340 nm were measured to draw standard curve. dALK and opto-dALK mixture solution were made with indicated ratio. Absorption values at 370 nm were measured to draw standard curve.
# [2] = molecular target: T1, IKZF1 (Homo sapiens, UniProt Q13422+Q96SW2); assay: IKZF1 degradation, immunoblot of MT2 cells; assay type: cell-based; design: endogenous in cells; host or cells: MT2; details: with UVA irradiation
# Description: (§2) Human embryonic kidney 293T (HEK293T) cells and HEK293FT were maintained in Dulbecco's Modified Eagle's Medium (DMEM) containing 10% fetal bovine serum (FBS), 100 Units of penicillin and […] streptomycin. MM.1S, MT2, C4-2, NCI-H2228 and NCI-H3122 cells were cultured in RPMI1640 containing 10% fetal bovine serum (FBS), 100 Units of penicillin and 100 μg/ml streptomycin. 293FT^CRBN+/+, 293FT^CRBN+/+ , MM.1S^CRBN+/+ and MM.1S^CRBN−/− cells were provided Dr. William G. Kaelin (Dana-Farber Cancer Institute). For UVA irradiation, cells were pretreated with opto-PROTACs for 2-4 hours, and then subjected to UVA irradiation for indicated durations.
# Cells were lysed in EBC lysis buffer (50 mM Tris pH 7.5, 120 mM NaCl, 0.5% NP-40), supplemented with protease inhibitors (cOmplete Mini, Roche) and phosphatase inhibitors (phosphatase inhibitor cocktail set I and II, Calbiochem). The protein concentrations of the lysates were measured using the Bio-Rad protein assay reagent on a Beckman Coulter DU-800 spectrophotometer. The lysates were then resolved by sodium dodecylsulfate-polyacrylamide gel ectrophoresis (SDS-PAGE) and immunoblotted with indicated antibodies. For immunoprecipitation, 1 mg lysates were incubated with the appropriate sepharose beads for 4 h at 4° C. […]
# [3] = molecular target: T2, CRBN (Homo sapiens, UniProt Q96SW2); assay: Competitive binding in vitro pull-down assay (biotin-pomalidomide pulls down Flag-CRBN)
# T2 construct: made in house; host or cells: HEK293T
# Description: Flag-CRBN was expressed in HEK293T cells lysed in PROTAC buffer B (50 mM Tris pH 7.5, 150 mM NaCl, 0.5% NP-40) supplemented with protease inhibitors (cOmplete Mini, Roche) and phosphatase inhibitors (phosphatase inhibitor cocktail set I and II, Calbiochem). 3mg cell lysis was incubated with 10 μl 10mM biotin-pomalidomide and […] streptavidin beads for 1 h at 4° C. in the absence or presence of pomalidomide or opto-pomalidomide. Then, the beads were washed four times with NETN buffer (20 mM Tris, pH 8.0, 100 mM NaCl, 1 mM EDTA and 0.5% NP-40) before being resolved by SDS-PAGE and immunoblotted with indicated antibodies.
# [4] = molecular target: T3, CRBN and IKZF1 (Homo sapiens, UniProt Q13422+Q96SW2); assay: CRBN-IKZF1 interaction, Flag-IP and immunoblot in HEK293T cells; assay type: cell-based; details: 10 μM MG132 12 hours
# T3 construct: expressed in transfected cells; host or cells: HEK293T
# Description: (§3) MM.1S, MT2, C4-2, NCI-H2228 and NCI-H3122 cells were cultured in RPMI1640 containing 10% fetal bovine serum (FBS), 100 Units of penicillin and 100 μg/ml streptomycin. […] For UVA irradiation, cells were pretreated with opto-PROTACs for 2-4 hours, and then subjected to UVA irradiation for indicated durations.
# (§4) Cells were lysed in EBC lysis buffer (50 mM Tris pH 7.5, 120 mM NaCl, 0.5% NP-40), supplemented with protease inhibitors (cOmplete Mini, Roche) and phosphatase inhibitors (phosphatase inhibitor cocktail set I and II, Calbiochem). The protein concentrations of the lysates were measured using the Bio-Rad protein assay reagent on a Beckman Coulter DU-800 spectrophotometer. The lysates were then resolved by sodium dodecylsulfate-polyacrylamide gel ectrophoresis (SDS-PAGE) and immunoblotted with indicated antibodies. For immunoprecipitation, 1 mg lysates were incubated with the appropriate sepharose beads for 4 h at 4° C. Immuno-complexes were washed four times with NETN lysis buffer (20 mM Tris, pH 8.0, 100 mM NaCl, 1 mM EDTA and 0.5% NP-40) before being resolved by SDS-PAGE and immunoblotted with indicated antibodies.
# [5] = tested on: MT2 cells; assay: CCK-8 cell viability assay, MT2 cells; assay type: cell-based; details: UVA irradiation (365 nm) 15 min
# Description: as §2
# (§5) Cell in 96-well plates were incubated with 10 ul/well of CCK-8 solution and incubated for 2 hours, followed by the measurement of optical density using a microplate reader with a 450 nm filter (O.D. 450).
# [6] = molecular target: T1, IKZF1; assay: In vivo ubiquitination assay of IKZF1 by CRBN in HEK293T cells (Ni-NTA pull down); assay type: cell-based; design: expressed in transfected cells; host or cells: HEK293T; details: UVA irradiation (365 nm) 15 min
# Description: Briefly, HEK293T cells were transfected with Flag-CRBN, His-ubiquitin and HA-IKZF1 or GFP-BRD2 or GFP-BRD3. 24 hours after transfection, pomalidomide, opto-pomalidomide, dBET1 or opto-dBET1 were added to the cell culture together with 10 μM MG132 for 12 hours and cells were harvested in denatured buffer A (6 M guanidine-HCl, pH 8.0, 0.1 M Na2HPO4/NaH2PO4, 10 mM imidazole). After sonication, the ubiquitinated proteins were purified by incubation with Ni-NTA matrices for 3 hours at room temperature. The pull-down products were washed sequentially twice in buffer A, twice in buffer ANTI mixture (buffer A: buffer TI=1:3) and once in buffer TI (25 mM Tris-HCl, pH 6.8, 20 mM imidazole). The poly-ubiquitinated proteins were separated by SDS-PAGE for immunoblot analysis.
# [7] = tested on: IKZF1/3; assay: IKZF1/3 degradation, immunoblot of MM1S cells; assay type: cell-based
# Description: as §3, §4
# [8] = Uncaging (photolysis) by UVA irradiation in vitro, UV-VIS absorption / UPLC-MS analysis; assay type: physicochemical; details: 1 mM, UVA 365 nm, time course
# Description: HPLC spectra were acquired using an Agilent 1200 Series system with DAD detector for all the intermediates and Opto-PROTACs below. Chromatography was performed on a 2.1×150 mm Zorbax 300SB-C18 5 μm column with water containing 0.1% formic acid as solvent A and acetonitrile containing 0.1% formic acid as solvent B at a flow rate of 0.4 ml/min. The gradient program was as follows: 1% B (0-1 min), 1-99% B (1-4 min), and 99% B (4-8 min). High-resolution mass spectra (FIRMS) data were acquired in positive ion mode using an Agilent G1969A API-TOF with an electrospray ionization (ESI) source. Nuclear Magnetic Resonance (NMR) spectra were acquired on a Bruker DRX-600 spectrometer with 600 MHz for proton (^1H NMR) and 151 MHz for carbon (^13C NMR); chemical shifts are reported in (δ). Preparative HPLC was performed on Agilent Prep 1200 series with UV detector set to 254 nm. Samples were injected onto a Phenomenex Luna 250×30 mm, 5 μm, C18 column at room temperature. The flow rate was 40 ml/min. A linear gradient was used with 10% of acetonitrile (A) in H2O (with 0.1% TFA) (B) to 100% of acetonitrile (A). HPLC was used to establish the purity of target compounds. All final compounds had >95% purity using the HPLC methods described above.
# as §1
# [9] = tested on: MM1S cells; assay: CCK-8 cell viability assay, MM1S cells; assay type: cell-based; details: MM1S cells, UVA irradiation (365 nm) 15 min
# Description: as §2, §5
smiles,measurement,setting,value
"COc1cc(COC(=O)N2C(=O)CCC(N3C(=O)c4cccc(N)c4C3=O)C2=O)c([N+](=O)[O-])cc1OC (stereo not drawn) [opto-pomalidomide, 4,5-dimethoxy-2-nitrobenzyl 3-(4-amino-1,3-dioxoisoindolin-2-yl)-2,6-dioxopiperidine-1-carboxylate]",maximum in absorption of UV-VIS absorption spectrum,[1],364 nm
same,degradation of IKZF1,[2],mediate IKZF1 degradation in MT2 cells
same,binding with CRBN,"[3]; after UVA irradiation (365 nm, 30 min)",regained ability to bind with CRBN
same,binding with CRBN,[3]; without UVA irradiation,ineffective to bind with CRBN in vitro
same,interaction between CRBN and IKZF1,[4]; UVA irradiation (365 nm) 15 min,regained the ability to promote the binding between CRBN and IKZF 1
same,interaction between CRBN and IKZF1,[4]; without UVA irradiation,ineffective in guiding the protein-protein interaction between CRBN and IKZF1
same,cell proliferation (CCK-8),[5],inhibits MT2 cell proliferation in a dose-dependent manner
same,ubiquitination of IKZF1 by CRBN,[6],leading to CRBN-mediated IKZF1 ubiquitination
same,degradation of IKZF1/3,"[7]; MM1S cells, UVA irradiation (365 nm) for different durations",occurred in a drug-dose and UVA-dose dependent manner
same,degradation of IKZF1/3,"[7]; MM1S-CRBN+/+ vs. MM1S-CRBN−/− cells, 12 hours, without UVA irradiation, opto-drug up to 10-fold excess",lost this function without UVA irradiation
same,uncaging (photolysis) by UVA irradiation in vitro,[8],could be induced to undergo photolysis by UVA irradiation in vitro
same,cell proliferation (CCK-8),[9],largely dependent on UVA irradiation; also recorded: inhibits MM1S cell proliferation in a dose-dependent manner
